For two compounds, Kd results are on record in article PMC4767466, “Identification of a novel platelet antagonist that binds to CLEC-2 and suppresses podoplanin-induced platelet aggregation and cancer metastasis” (Oncotarget, 2015).

Assay [1] has as its target T1, CLEC-2 (C-type lectin-like receptor 2) (Homo sapiens, UniProt Q9P126).
T1 construct: gene CLEC1B; recombinant CLEC-2
Description: SPR (Biacore T200, CLEC-2 amine-coupled to CM5 chip, equilibrium fit). It is filed as binding.

Another assay deals with CLEC-2 (Homo sapiens) (UniProt Q9P126). Conditions: cited from earlier work.
CLEC-2 (Homo sapiens), sequence (Q9P126 whole entry): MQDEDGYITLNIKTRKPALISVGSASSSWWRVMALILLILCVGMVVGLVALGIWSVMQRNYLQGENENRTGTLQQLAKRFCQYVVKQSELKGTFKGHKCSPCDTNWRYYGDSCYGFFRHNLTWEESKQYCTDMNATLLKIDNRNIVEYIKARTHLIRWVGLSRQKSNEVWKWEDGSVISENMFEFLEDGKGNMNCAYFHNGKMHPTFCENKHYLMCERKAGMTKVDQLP

T1 sequence (Q9P126 whole entry): as above

As to `O=C(NCCNC(=O)c1cc([N+](=O)[O-])ccc1O)c1ccccc1` [2CP], in assay [1], the Kd was determined as 33.2 ± 1.9 µM.

Take podoplanin (from UniProt Q86YL7): in the assay with CLEC-2 (Homo sapiens), the Kd was 24.5 µM.

In general, Kd refers to the equilibrium constant for the complex coming apart.
